Data on 13 molecules can be found in ChEMBL document CHEMBL3046280, “Synthesis of 1-amidoalkyl-2-naphthols and oxazine derivatives with study of their antibacterial and antiviral activities” (Med Chem Res, 2013).

Data set [1] concerns Klebsiella pneumoniae. Briefly: Antibacterial activity against Klebsiella pneumoniae assessed as growth inhibition. The format is functional.
Data set [2] concerns unidentified influenza virus. Briefly: Antiviral activity against unidentified influenza virus (H5N1) infected African green monkey Vero cells assessed as protection against virus-induced cytopathic effect incubated for 3 days measured on day 4 post infection by MTT assay. Type of data set: functional, organism-based. In general terms: Protection from cytopathic effect is a common read-out in antiviral testing.

Data set [3] in a line: Therapeutic index, ratio of LD50 for african green monkey Vero cells to EC50 for Avian influenza virus H5N1 infected in african green monkey Vero cells. Type of data set: cell-based. The following applies: read-out: Ratio LD50/EC50.
A further data set relates to Escherichia coli. Briefly: Antibacterial activity against Escherichia coli assessed as growth inhibition. The format is functional, organism-based.
Data set [4] concerns Bacillus subtilis. Briefly: Antibacterial activity against Bacillus subtilis assessed as growth inhibition. Type of data set: functional.
In the next data set the test system is Vero. Briefly: Cytotoxicity against Chlorocebus aethiops (African green monkey) Vero cells after 24 hr by MTT assay. The format is cell-based. The conditions noted are these: chlorocebus sabaeus.
In data set [5] the test system is Proteus mirabilis. Briefly: Antibacterial activity against Proteus mirabilis assessed as growth inhibition. The format is functional.
A further data set relates to Pseudomonas aeruginosa. Briefly: Antibacterial activity against Pseudomonas aeruginosa assessed as growth inhibition. The format is functional, organism-based.
For another data set, the system named is Staphylococcus aureus. Briefly: Antibacterial activity against Staphylococcus aureus assessed as growth inhibition. The format is functional.
The test system of data set [6] is Proteus mirabilis. Briefly: Antibacterial activity against Proteus mirabilis assessed as growth inhibition at 0.042 uM/ml. The format is functional, organism-based.
Data set [7] has as its system Bacillus subtilis. Briefly: Antibacterial activity against Bacillus subtilis assessed as growth inhibition at 0.042 uM/ml. Type of data set: functional, organism-based.
Data set [8] relates to Klebsiella pneumoniae. Briefly: Antibacterial activity against Klebsiella pneumoniae assessed as growth inhibition at 0.042 uM/ml. The format is functional, organism-based.

Calls of active or inactive are those of the source. The rule behind the calls is not given here.

Regarding `NC1=NC(c2c[nH]c3ccccc23)c2c(ccc3ccccc23)O1` (stereo not given), the “diameter of the inhibition zone (DIZ)” value in the data set with Klebsiella pneumoniae [1] is given as 13 mm; with Bacillus subtilis [4], 12 mm. Also, the EC50 in data set [2] is recorded as 0.061 uM/ml. For the same molecule, in data set [3], the selectivity ratio amounted to 2.05. For the same molecule, the “growth inhibition (GI)” value with Escherichia coli, in the data set with Proteus mirabilis [5], in the data set with Pseudomonas aeruginosa and with Staphylococcus aureus was “inactive” in each case. The molecule also returned an LD50 in the data set with Vero of 0.125 uM/ml.

Take `CC(=O)NC(c1cn(-c2ccccc2)nc1-c1ccccc1)c1c(O)ccc2ccccc12` (stereo not given): the “diameter of the inhibition zone (DIZ)” value in the data set on Klebsiella pneumoniae [1] stood at 18 mm. Moreover, the EC50 in data set [2] worked out at 0.021 uM/ml. Further, the selectivity ratio in data set [3] amounted to 7.19. The “growth inhibition (GI)” value in the data set with Escherichia coli, in the data set on Bacillus subtilis [4], in the data set with Proteus mirabilis [5], with Pseudomonas aeruginosa and in the data set with Staphylococcus aureus was “inactive” throughout. The molecule further showed an LD50 with Vero of 0.151 uM/ml.

With `NC(=O)NC(c1c(O)ccc2ccccc12)c1c[nH]c2ccccc12` (stereo not given), the “diameter of the inhibition zone (DIZ)” value in the data set with Klebsiella pneumoniae [1] is recorded as 11 mm. For the same molecule, the EC50 in [2] is on record as 0.031 uM/ml. Also, the selectivity ratio in data set [3] amounted to 7. Further, the “growth inhibition (GI)” value in the data set with Escherichia coli, in the data set with Bacillus subtilis [4], in the data set on Proteus mirabilis [5], in the data set on Pseudomonas aeruginosa and in the data set on Staphylococcus aureus was “inactive” each time. Also, in the data set on Vero, the LD50 worked out at 0.217 uM/ml.

Regarding `CC(=O)N[C@H]1[C@H]([C@H](O)[C@H](O)CO)OC(C(=O)O)=C[C@@H]1NC(=N)N` [ZANAMIVIR], the EC50 in data set [2] is recorded as 0.015 uM/ml. For the same molecule, the selectivity ratio in data set [3] amounted to 15.5. The molecule also had an LD50 in the data set on Vero of 0.232 uM/ml.

`O=C(NC(c1c(O)ccc2ccccc12)c1c[nH]c2ccccc12)c1ccccc1` (stereo not given): the “growth inhibition (GI)” value in the data set with Klebsiella pneumoniae [1], in the data set with Escherichia coli, in the data set with Proteus mirabilis [5] and in the data set with Pseudomonas aeruginosa was “inactive” each time. In addition, in [2], the EC50 turned out to be 0.019 uM/ml. In addition, in data set [3], the selectivity ratio is 16.2. Moreover, the “diameter of the inhibition zone (DIZ)” value in the data set with Bacillus subtilis [4] and in the data set with Staphylococcus aureus was 11 mm in each case. The molecule further showed an LD50 with Vero of 0.307 uM/ml.

Consider `c1ccc(-c2nn(-c3ccccc3)cc2C2NC(c3cn(-c4ccccc4)nc3-c3ccccc3)c3c(ccc4ccccc34)O2)cc1` (stereo not given), for which the “diameter of the inhibition zone (DIZ)” value in the data set with Klebsiella pneumoniae [1], in the data set with Bacillus subtilis [4] and with Staphylococcus aureus was 11 mm each time. Besides, the EC50 in data set [2] was determined as 0.045 uM/ml. Also, in data set [3], the selectivity ratio stood at 1.98. In addition, the “growth inhibition (GI)” value in the data set with Escherichia coli, in the data set with Proteus mirabilis [5] and with Pseudomonas aeruginosa was “inactive” each time. In the data set on Vero, the LD50 was determined as 0.089 uM/ml.

Regarding `NC(=O)NC(c1cn(-c2ccccc2)nc1-c1ccccc1)c1c(O)ccc2ccccc12` (stereo not given), the “diameter of the inhibition zone (DIZ)” value in the data set on Klebsiella pneumoniae [1] is on record as 11 mm; in the data set with Proteus mirabilis [5], 0 mm; with Staphylococcus aureus, 24 mm. Besides, the EC50 in data set [2] amounted to 0.025 uM/ml. Also, in [3], the selectivity ratio was 6.84. Besides, the “growth inhibition (GI)” value in the data set with Escherichia coli, in the data set on Bacillus subtilis [4] and with Pseudomonas aeruginosa was “inactive” each time. In the data set with Vero, this molecule returned an LD50 of 0.171 uM/ml.

Turning to GENTAMICIN, the inhibition zone (IZ) in the data set on Proteus mirabilis [6] stood at 25 mm; in the data set on Bacillus subtilis [7], 21 mm; in the data set on Klebsiella pneumoniae [8] it was 19 mm.

In the case of `c1ccc(C2=NC(c3c[nH]c4ccccc34)c3c(ccc4ccccc34)O2)cc1` (stereo not given), the “diameter of the inhibition zone (DIZ)” value in the data set on Klebsiella pneumoniae [1] amounted to 11 mm; in the data set on Bacillus subtilis [4], 14 mm; in the data set with Staphylococcus aureus, 11 mm. Also, the EC50 in data set [2] was 0.049 uM/ml. The selectivity ratio in data set [3] was 2.12. Also, the “growth inhibition (GI)” value in the data set on Escherichia coli, with Proteus mirabilis [5] and in the data set with Pseudomonas aeruginosa was “inactive” in each case. Moreover, in the data set on Vero, the LD50 worked out at 0.104 uM/ml.

Regarding `c1ccc2c3c(ccc2c1)OC(c1c[nH]c2ccccc12)NC3c1c[nH]c2ccccc12` (stereo not given), the “diameter of the inhibition zone (DIZ)” value is recorded as 12 mm with Klebsiella pneumoniae [1] and 13 mm in the data set with Bacillus subtilis [4]. Besides, the EC50 in data set [2] was determined as 0.168 uM/ml. Moreover, the selectivity ratio in [3] came to 0.726. In addition, the “growth inhibition (GI)” value with Escherichia coli, in the data set on Proteus mirabilis [5], in the data set with Pseudomonas aeruginosa and with Staphylococcus aureus was “inactive” in each case. Further, the LD50 in the data set on Vero is listed as 0.122 uM/ml.

Take `CC(=O)NC(c1c(O)ccc2ccccc12)c1c[nH]c2ccccc12` (stereo not given): the “growth inhibition (GI)” value in the data set with Klebsiella pneumoniae [1], in the data set on Escherichia coli, with Proteus mirabilis [5] and with Pseudomonas aeruginosa was “inactive” throughout. Further, the EC50 in [2] is given as 0.022 uM/ml. Moreover, the selectivity ratio in data set [3] is 8.95. For the same molecule, the “diameter of the inhibition zone (DIZ)” value in the data set with Bacillus subtilis [4] was determined as 17 mm; in the data set with Staphylococcus aureus, 20 mm. Also, the LD50 with Vero turned out to be 0.197 uM/ml.

For `NC1=NC(c2cn(-c3ccccc3)nc2-c2ccccc2)c2c(ccc3ccccc23)O1` (stereo not given), the “diameter of the inhibition zone (DIZ)” value in the data set on Klebsiella pneumoniae [1] turned out to be 11 mm; in the data set on Bacillus subtilis [4] it was 12 mm. The EC50 in data set [2] was found to be 0.0148 uM/ml. The selectivity ratio in data set [3] was 5.61. The “growth inhibition (GI)” value in the data set on Escherichia coli, with Proteus mirabilis [5], in the data set on Pseudomonas aeruginosa and in the data set with Staphylococcus aureus was “inactive” throughout. The same molecule showed an LD50 in the data set on Vero of 0.083 uM/ml.

`O=C(NC(c1cn(-c2ccccc2)nc1-c1ccccc1)c1c(O)ccc2ccccc12)c1ccccc1` (stereo not given): the “diameter of the inhibition zone (DIZ)” value was determined as 14 mm in the data set with Klebsiella pneumoniae [1] and 20 mm in the data set with Bacillus subtilis [4]. Moreover, the EC50 in [2] came out at 0.018 uM/ml. Further, the selectivity ratio in data set [3] stood at 5.44. Moreover, the “growth inhibition (GI)” value in the data set with Escherichia coli, in the data set with Proteus mirabilis [5], with Pseudomonas aeruginosa and with Staphylococcus aureus was “inactive” throughout. The LD50 in the data set on Vero was 0.098 uM/ml.
